The results in this text go back to publication PMC6458850, “CXXC5 mediates growth plate senescence and is a target for enhancement of longitudinal bone growth” (Life Science Alliance, 2019).

Data set [1] deals with growth plates of proximal tibiae. Kind of data set: Growth plate senescence and longitudinal bone growth in KY19382-treated mice. Type of data set: in vivo, mouse. As to the method:
Figure 5. The effects of KY19382 on growth plate senescence and longitudinal bone growth. (A-I) KY19382 (0.1 mg/kg) was administered to 7-wk-old mice (A-E) or 3-wk-old mice (F-I) by daily intraperitoneal injection for 2 wk (n = 7). H&E staining, IHC analyses with the indicated antibodies, and TRAP staining in the growth plates of proximal tibiae treated with KY19382 (A, F). Quantitative analyses of the cell number per column (mean ± SEM, n = 7; t test, ***P < 0.0005) (B) or the height (mean ± SEM, n = 7; t test, ***P < 0.0005) (G) of resting zone and proliferative zone (RZ&PZ) and hypertrophic zone (HZ) in the growth plates of proximal tibiae. Quantitative analyses of BrdU-positive cells in the growth plates (mean ± SEM, n = 5; t test, ***P < 0.0005) (C, H). Quantitative analyses of the number of TRAP-positive foci along 250 μm of the cartilage/bone interface (mean ± SEM, n = 3; t test, *P < 0.05) (D, I). Immunoblot analyses with the indicated antibodies in the growth plate of proximal tibiae of mice treated with KY19382 (E). Scale bars, 50 μm. (J) 3-wk-old mice were intraperitoneally injected with KY19382 (0.1 mg/kg) daily for 10 wk. Representative radiographs are shown (left), and tibial length was measured (right) (mean ± SEM, n = 7-15; t test, ***P < 0.0005). The area within the dashed lines indicates the growth plate zone. n.s., no significance; TRAP, tartrate-resistant acid phosphatase. Cxxc5^-/- mice were established in a previous study ([Kim et al, 2015]). To manipulate growth plate senescence by estrogen, 3-wk-old Cxxc5^+/+ and Cxxc5^-/- male mice received weekly i.m. injections of either 70 μg/kg estradiol (E2) cypionate (Sigma-Aldrich) or vehicle (cottonseed oil) for 3 wk. To investigate the effects of KY19382 treatment on longitudinal bone growth, C57BL/6 male mice were purchased from KOATECH (Gyeonggido, Korea). KY19382 (0.1 mg/kg) was administered daily by i.p. injection to 3- and 7-wk-old mice for 2 wk or to 3-wk-old mice for 10 wk. For BrdU labeling experiments, the mice were i.p. injected with 50 mg/kg BrdU (Sigma-Aldrich) before 24 h to euthanize. All animal procedures were approved by the Institutional Animal Care and Use Committee of Yonsei University (Korea) and conducted based on the guidelines of the Korean Food and Drug Administration. Plain radiographs were taken using an X-ray apparatus (KODAK DXS 4000 Pro SYSTEM; Carestream Health). The tissues were fixed in 4% PFA, decalcified in 10% EDTA (pH 7.4), dehydrated, embedded in paraffin, and sectioned to 4-μm thickness (Leica Microsystems). The tissues sections were rehydrated and used for further analyses, including H&E, TRAP, and IHC staining. To perform IHC staining, the sections were incubated with citrate buffer (pH 6.0) at 80°C for 30 min, with 0.05% trypsin working solution (pH 7.8) for 30 min at 37°C, or with 0.5% pepsin (Sigma-Aldrich) for 15 min at 37°C. Then, the sections were blocked with 5% normal goat serum (Vector Laboratories) and 0.3% Triton X-100 in PBS for 1 h at room temperature. For 3,3'-diaminobensidine (DAB) staining, the sections were incubated with 0.345% H2O2 for 15 min. Before incubating the sections with mouse primary antibody, mouse IgG was blocked using a M.O.M kit (Vector Laboratories). The sections were incubated at 4°C overnight with the following primary antibodies: anti-β-catenin (#610154; 1:50; BD Bioscience), anti-CXXC5 (1:200; lab-made) anti-BrdU ([…]; 1:200; DAKO), anti-COL2A1 (PA5-11462; 1:100; Thermo Fisher Scientific), anti-Ki67 (ab15580; 1:200; Abcam), and anti-RUNX2 (ab23981; 1:200; Abcam). Then, the sections were incubated at room temperature for 1 h with biotinylated anti-mouse (BA-9200; 1:200; Vector Laboratories) or biotinylated anti-rabbit (BA-1000; 1:200; Vector Laboratories) secondary antibodies. The sections were then incubated in avidin-biotin complex solutions (Vector Laboratories), stained with a DAB kit (Vector Laboratories) for 3-30 min, and counterstained with methyl green (Sigma-Aldrich). […]

A further data set deals with Various cells. Kind of data set: Cytotoxicity test (WST-1 cell viability). Type of data set: cell-based. The settings on record: 0.01-100 μM, 24 hours. As to the method: intravenous; IP, intraperitoneal; Tmax, Time to maximum plasm concentration; Cmax, Maximum plasma concentration after intraperitoneal injection; AUC, Area under the curve; CL, clearance; Vss, Volume of distribution at steady state; T1/2, Elimination half-life; F, […]
Table R2. Cytotoxicity test for KY19382 […]
viability was measured using WST-1. The IC50 value was determined from the dose-response […]
This manuscript addresses the role of CXXC5, a negative regulator of Wnt/beta-Catenin signaling, on growth plate senescence and associated longitudinal bone growth.
Authors used a peptide PTD-DBMP, and a small molecule KY19382, which interferes with GSK-3b activity and CXXC5-DVL interaction. Such interference activates Wnt/beta-catenin signaling that delays growth plate senescence, resulting in longitudinal bone growth in mice; thereby proposing CXXC5 as a potential target to enhance longitudinal growth of children at the risk of height retardation. This is a well
(1 picture or pasted object on this page, not shown here)

Data set [2] is described as follows: Toxicity observations in mice treated with KY19382 for 10 wk. The settings on record: 0.1 mg/kg i.p. daily for 10 wk. The data set is classed as in vivo, mouse. As to the method: Figure S9. The effects of KY19382 on articular cartilage and liver tissues, or weight. Data are shown from mice used in Fig 5J. (A, B) H&E staining of articular cartilage (A) and liver (B) tissues. (C) During treatment, the weights of mice were measured every 5–7 d (mean ± SEM, n = 7∼15). Scale bars, 100 μm.
Cxxc5^−/− mice were established in a previous study ([Kim et al, 2015]). To manipulate growth plate senescence by estrogen, 3-wk-old Cxxc5^+/+ and Cxxc5^−/− male mice received weekly i.m. injections of either 70 μg/kg estradiol (E2) cypionate (Sigma-Aldrich) or vehicle (cottonseed oil) for 3 wk. To investigate the effects of KY19382 treatment on longitudinal bone growth, C57BL/6 male mice were purchased from KOATECH (Gyeonggido, Korea). KY19382 (0.1 mg/kg) was administered daily by i.p. injection to 3- and 7-wk-old mice for 2 wk or to 3-wk-old mice for 10 wk. For BrdU labeling experiments, the mice were i.p. injected with 50 mg/kg BrdU (Sigma-Aldrich) before 24 h to euthanize. All animal procedures were approved by the Institutional Animal Care and Use Committee of Yonsei University (Korea) and conducted based on the guidelines of the Korean Food and Drug Administration.

Where [3] appears, read: 3-wk-old mice, 0.1 mg/kg i.p. daily for 2 wk.
The mark [4] stands for this setting: 7-wk-old mice, 0.1 mg/kg i.p. daily for 2 wk.

Turning to `CON=C1C(=C2C(=O)Nc3cc(Cl)c(Cl)cc32)Nc2ccccc21` [KY19382, 5,6-dichloroindirubin-3′-methoxime], in data set [1] (setting [3]), the “BrdU-positive cells in growth plate” value is “elevated” and the “height of each growth plate zone” value is on record as “elevated”. In addition, the “number of TRAP-positive foci in the growth plate/trabecular interface” value in data set [1] (3-wk-old mice, 0.1 mg/kg i.p. daily for 2 wk, vs vehicle) is “not different”. Further, in data set [1] (3-wk-old mice, 0.1 mg/kg i.p. daily for 10 wk, vs vehicle), the length of tibiae entry was “significantly increased”. Further, in data set [1] (setting [4]), the “nuclear β-catenin in growth plate chondrocytes” value is listed as “dramatically increased”; the “numbers of proliferative and hypertrophic chondrocytes per column” value was “increased numbers”; the “total growth plate height (COL2A1 immunostaining)” value was “significantly increased”. For the same molecule, the “TRAP-positive foci at cartilage/bone interface” value in data set [1] (7-wk-old mice, 0.1 mg/kg i.p. daily for 2 wk, vs vehicle) was “elevated”. In addition, the “cytotoxicity in variety of cell types” value in the data set with Various cells is given as “does not induce cytotoxicity”. Moreover, in data set [2], the “body weight during treatment” value was “no difference in weight”; the “histology of articular cartilage and liver tissues” value is recorded as “no histological abnormalities were detected”.
